Measured values from patent US20230146455A1, “TREATMENT OF INFLAMMATORY DISEASES WITH PEPTIDES AND PHARMACEUTICAL COMPOSITIONS” (Yuyu Pharma, Inc., priority 2020, published 2023).
“And” between values parts separate entries of the source, which are not always exact repeats. Identical values can stand only once. Where a SMILES comes first, the peptide text is derived from it. [ ]: non-standard residue; d: D form. Hyp = O=C(O)[C@@H]1C[C@@H](O)CN1

System: IL-1 alpha
Assay: Example 9 Luminex, LPS hPBMCs: IL-1 alpha
Assay type: cell-based, human
Settings: IL-1 alpha, replicates and Mean
Method: Treatment Human PBMCs were pretreated with YY-101, YDE-011 and YDE-043 or reference compound; Xiidra® at various concentration (ranging from 1 nM to 100 uM) for 2 h before stimulation. An equal volume of 0.5% DMSO was used as a vehicle control. Then, the cells were treated with LPS at 5 ug/ml. The supernatants from treated cells were harvested at 24 h and placed in a 96 well for Luminex cytokine & chemokine profiling using a Luminex 200 multiplex assay (Luminex; R&D system, USA).
The main study arm with triplicate wells per group in a 24-well plate: • 1. Blank • 2. PBMC: 0.5% DMSO • 3. PBMC+LPS (5 ug/ml) • 4. PBMC+YY-101 100 uM • 5. PBMC+YY-101 10 uM • 6. PBMC+YY-101 1 uM • 7. PBMC+YY-101 0.1 uM • 8. PBMC+YY-101 0.01 uM • 9. PBMC+LPS (5 ug/ml)+Xiidra®100 uM • 10. PBMC+LPS (5 ug/ml)+Xiidra® 10 uM • 11. PBMC+LPS (5 ug/ml)+Xiidra® 1 uM • 12. PBMC+LPS (5 ug/ml)+Xiidra®0.1 uM • 13. PBMC+LPS (5 ug/ml)+Xiidra®0.01 uM • 14. PBMC+LPS (5 ug/ml)+Xiidra®0.001 uM • 15. PBMC+LPS (5 ug/ml)+YY-101 100 uM • 16. PBMC+LPS (5 ug/ml)+YY-101 10 uM • 17. PBMC+LPS (5 ug/ml)+YY-101 1 uM • 18. PBMC+LPS (5 ug/ml)+YY-101 0.1 uM • 19. PBMC+LPS (5 ug/ml)+YY-101 0.01 uM • 20. PBMC+LPS (5 ug/ml)+YY-101 0.001 uM • 21. PBMC+LPS (5 ug/ml)+YDE-011 100 uM • 22. PBMC+LPS (5 ug/ml)+YDE-011 10 uM • 23. PBMC+LPS (5 ug/ml)+YDE-011 1 uM • 24. PBMC+LPS (5 ug/ml)+YDE-011 0.1 uM • 25. PBMC+LPS (5 ug/ml)+YDE-011 0.01 uM • 26. PBMC+LPS (5 ug/ml)+YDE-011 0.001 uM • 27. PBMC+LPS (5 ug/ml)+YDE-043 100 uM • 28. PBMC+LPS (5 ug/ml)+YDE-043 10 uM • 29. PBMC+LPS (5 ug/ml)+YDE-043 1 uM • 30. PBMC+LPS (5 ug/ml)+YDE-043 0.1 uM • 31. PBMC+LPS (5 ug/ml)+YDE-043 0.01 uM • 32. PBMC+LPS (5 ug/ml)+YDE-043 0.001 uM
Multiplex assay was used to measure 30 cytokines and chemokines. The 1:2, 1:10 and 1:200 diluted cell supernatant and serial dilution of the standard were dispensed into a 96 well plate at 50 ul/well. Then, the pre-mixed cocktail of antibody-coated magnetic beads was dispensed at 50 ul/well and incubated at room temperature for 2 h in a horizontal orbital microplate shaker at 800±500 rpm. The beads were washed using a magnetic device to prevent loss. The biotin-antibody was dispensed in 50 ul of each well and incubated at room temperature for 1 h in a shaker at 800±500 rpm. After washing, streptavidin-PE was added at 50 ul/well and incubated at room temperature for 30 min in a shaker under the same conditions. Finally, after washing, wash buffer (100 ul/well) was added to the plate and incubated in a shaker for 2 min. The Luminex™ 200 setting were set according to the manufacturer's protocol. The data was calculated with a standard five-parameter logistic nonlinear regression analysis of the data (xPonent software 4.2, USA). The levels of cytokine/chemokine are normalized to the live cell counts (1×10^5 cells/mL) and presented as concentrations per mL (pg/mL or ng/mL).

[1] = PBMC + LPS(5 ug/ml) + YDE011 0.001 uM
[2] = PBMC + LPS(5 ug/ml) + YDE011 0.001 uM, mean
[3] = PBMC + LPS(5 ug/ml) + YDE011 0.01 uM
[4] = PBMC + LPS(5 ug/ml) + YDE011 0.01 uM, mean
[5] = PBMC + LPS(5 ug/ml) + YDE011 0.1 uM
[6] = PBMC + LPS(5 ug/ml) + YDE011 0.1 uM, mean
[7] = PBMC + LPS(5 ug/ml) + YDE011 1 uM
[8] = PBMC + LPS(5 ug/ml) + YDE011 1 uM, mean
[9] = PBMC + LPS(5 ug/ml) + YDE011 10 uM
[10] = PBMC + LPS(5 ug/ml) + YDE011 10 uM, mean
[11] = PBMC + LPS(5 ug/ml) + YDE011 100 uM
[12] = PBMC + LPS(5 ug/ml) + YDE011 100 uM, mean
[13] = PBMC + LPS(5 ug/ml) + YDE043 0.001 uM
[14] = PBMC + LPS(5 ug/ml) + YDE043 0.001 uM, mean
[15] = PBMC + LPS(5 ug/ml) + YDE043 0.01 uM
[16] = PBMC + LPS(5 ug/ml) + YDE043 0.01 uM, mean
[17] = PBMC + LPS(5 ug/ml) + YDE043 0.1 uM
[18] = PBMC + LPS(5 ug/ml) + YDE043 0.1 uM, mean
[19] = PBMC + LPS(5 ug/ml) + YDE043 1 uM
[20] = PBMC + LPS(5 ug/ml) + YDE043 1 uM, mean
[21] = PBMC + LPS(5 ug/ml) + YDE043 10 uM
[22] = PBMC + LPS(5 ug/ml) + YDE043 10 uM, mean
[23] = PBMC + LPS(5 ug/ml) + YDE043 100 uM
[24] = PBMC + LPS(5 ug/ml) + YDE043 100 uM, mean

CC(C)C[C@H](NC(=O)CNC(=O)[C@H](CC(C)C)NC(=O)[C@H](CCC(N)=O)NC(=O)CNC(=O)[C@@H]1C[C@@H](O)CN1)C(=O)N[C@@H](C)C(=O)NCC(=O)N1CCC[C@H]1C(=O)N[C@@H](CCCCN)C(=O)O [YDE-011] (H-[Hyp]GQLGLAGPK-OH)
Concentration [1]: 336.1 pg/mL and 335.4 pg/mL and 361.1 pg/mL | conc/live cell [1]: 74.7 pg/10^5 and 57.8 pg/10^5 and 62.3 pg/10^5 | Concentration [2]: 344.2 pg/mL | conc/live cell [2]: 64.9 pg/10^5 | Concentration [3]: 359.2 pg/mL and 381.8 pg/mL and 342.8 pg/mL | conc/live cell [3]: 57.9 pg/10^5 and 74.9 pg/10^5 and 54.4 pg/10^5 | Concentration [4]: 361.3 pg/mL | conc/live cell [4]: 62.4 pg/10^5 | Concentration [5]: 332.4 pg/mL and 312.9 pg/mL and 347.3 pg/mL | conc/live cell [5]: 50.4 pg/10^5 and 62.6 pg/10^5 and 60.9 pg/10^5 | Concentration [6]: 330.9 pg/mL | conc/live cell [6]: 58.0 pg/10^5 | Concentration [7]: 349.2 pg/mL and 321.1 pg/mL and 345.8 pg/mL | conc/live cell [7]: 63.5 pg/10^5 and 66.9 pg/10^5 and 72.0 pg/10^5 | Concentration [8]: 338.7 pg/mL | conc/live cell [8]: 67.5 pg/10^5 | Concentration [9]: 356.2 pg/mL and 327.9 pg/mL and 345.8 pg/mL | conc/live cell [9]: 66.0 pg/10^5 and 56.5 pg/10^5 and 73.6 pg/10^5 | Concentration [10]: 343.3 pg/mL | conc/live cell [10]: 65.4 pg/10^5 | Concentration [11]: 446.4 pg/mL and 402.2 pg/mL and 436.1 pg/mL | conc/live cell [11]: 73.2 pg/10^5 and 65.9 pg/10^5 and 72.7 pg/10^5 | Concentration [12]: 428.2 pg/mL | conc/live cell [12]: 70.6 pg/10^5

CC(C)C[C@H](NC(=O)[C@H](CCC(N)=O)NC(=O)CNC(=O)[C@@H]1C[C@@H](O)CN1)C(=O)NCC(=O)O [YDE-043] (H-[Hyp]GQLG-OH; N-terminus and C-terminus assumed)
Concentration [13]: 339.1 pg/mL and 369.6 pg/mL and 357.7 pg/mL | conc/live cell [13]: 77.1 pg/10^5 and 61.6 pg/10^5 and 77.8 pg/10^5 | Concentration [14]: 355.5 pg/mL | conc/live cell [14]: 72.1 pg/10^5 | Concentration [15]: 352.5 pg/mL and 342.5 pg/mL and 370.4 pg/mL | conc/live cell [15]: 78.3 pg/10^5 and 51.9 pg/10^5 and 74.1 pg/10^5 | Concentration [16]: 355.1 pg/mL | conc/live cell [16]: 68.1 pg/10^5 | Concentration [17]: 361.4 pg/mL and 329.0 pg/mL and 382.6 pg/mL | conc/live cell [17]: 72.3 pg/10^5 and 58.8 pg/10^5 and 68.3 pg/10^5 | Concentration [18]: 357.7 pg/mL | conc/live cell [18]: 66.5 pg/10^5 | Concentration [19]: 344.7 pg/mL and 332.4 pg/mL and 338.7 pg/mL | conc/live cell [19]: 59.4 pg/10^5 and 69.2 pg/10^5 and 63.9 pg/10^5 | Concentration [20]: 338.6 pg/mL | conc/live cell [20]: 64.2 pg/10^5 | Concentration [21]: 357.4 pg/mL and 342.1 pg/mL and 351.0 pg/mL | conc/live cell [21]: 68.7 pg/10^5 and 63.3 pg/10^5 and 62.7 pg/10^5 | Concentration [22]: 350.2 pg/mL | conc/live cell [22]: 64.9 pg/10^5 | Concentration [23]: 454.5 pg/mL and 414.4 pg/mL | conc/live cell [23]: 73.3 pg/10^5 and 64.7 pg/10^5 | Concentration [24]: 434.4 pg/mL | conc/live cell [24]: 69.0 pg/10^5
